Source: ChEMBL document CHEMBL4699440, “Comprehensive review on the anti-bacterial activity of 1,2,3-triazole hybrids” (Eur J Med Chem, 2019)
Converted amounts (≈) assume the structure as drawn.

How the values were obtained:
Type in all cases: functional
[1] = tested on: Escherichia coli; assay: Antibacterial activity against ESBL-producing Escherichia coli ATCC 25925 by CLSI-based broth dilution method
[2] = tested on: Staphylococcus aureus; assay: Antibacterial activity against methicillin-resistant Staphylococcus aureus ATCC 25923 by CLSI-based broth dilution method
[3] = tested on: Enterococcus faecium; assay: Antibacterial activity against vancomycin-resistant Enterococcus faecium by CLSI-based broth dilution method; conditions: time 24 hrs
[4] = tested on: Klebsiella pneumoniae; assay: Antibacterial activity against Klebsiella pneumoniae ATCC 27736 by CLSI-based broth dilution method
[5] = tested on: Pseudomonas aeruginosa; assay: Antibacterial activity against Pseudomonas aeruginosa ATCC 27853 by CLSI-based broth dilution method
[6] = tested on: Staphylococcus aureus; assay: Antibacterial activity against methicillin-sensitive Staphylococcus aureus by CLSI-based broth dilution method
[7] = tested on: Curvularia lunata; assay: Antifungal activity against Curvularia lunata NCIM 1131 incubated for 48 hrs
[8] = tested on: Bacillus cereus; assay: Antibacterial activity against Bacillus cereus ATCC 6630 incubated for 24 hrs
[9] = tested on: Aspergillus niger; assay: Antifungal activity against Aspergillus niger NCIM 1196 incubated for 48 hrs
[10] = tested on: Micrococcus luteus; assay: Antibacterial activity against Micrococcus Luteus ATCC 398 incubated for 24 hrs
[11] = tested on: Pseudomonas fluorescens; assay: Antibacterial activity against Pseudomonas fluorescens NCIM 2173 incubated for 24 hrs
[12] = tested on: Staphylococcus aureus; assay: Antibacterial activity against Staphylococcus aureus ATCC 29737 incubated for 24 hrs
[13] = tested on: Escherichia coli; assay: Antibacterial activity against Escherichia coli NCIM 2256 incubated for 24 hrs
[14] = tested on: Penicillium chrysogenum; assay: Antifungal activity against Penicillium chrysogenum NCIM 723 incubated for 48 hrs
[15] = tested on: Sphingomonas paucimobilis; assay: Antibacterial activity against Flavobacterium devorans ATCC 10829 incubated for 24 hrs
[16] = tested on: Bacillus cereus; assay: Antibacterial activity against Bacillus cereus by agar dilution method
[17] = tested on: Pseudomonas aeruginosa; assay: Antibacterial activity against Pseudomonas aeruginosa by agar dilution method
[18] = tested on: Escherichia coli; assay: Antibacterial activity against Escherichia coli by agar dilution method
[19] = tested on: Staphylococcus aureus; assay: Antibacterial activity against Staphylococcus aureus by agar dilution method

Row | MIC [16] | MIC [17] | MIC [18] | MIC [19] | SMILES | MIC [1] | MIC [2] | MIC [3] | MIC [4] | MIC [5] | MIC [6] | other results
1 | 2 µg/mL (≈ 3.57 µM) | 2 µg/mL (≈ 3.57 µM) | 2 µg/mL (≈ 3.57 µM) | 2 µg/mL (≈ 3.57 µM) | O=C(N/N=C/c1cn(-c2ccccc2)nc1-c1cccc2ccccc12)c1cccc(-n2cc(-c3ccccc3)nn2)c1 |  |  |  |  |  |  | 
2 | 2 µg/mL (≈ 3.88 µM) | 2 µg/mL (≈ 3.88 µM) | 2 µg/mL (≈ 3.88 µM) | 2 µg/mL (≈ 3.88 µM) | O=C(N/N=C/c1cn(-c2ccccc2)nc1-c1cccs1)c1cccc(-n2cc(-c3ccccc3)nn2)c1 |  |  |  |  |  |  | 
3 | 2 µg/mL (≈ 3.51 µM) | 2 µg/mL (≈ 3.51 µM) | 2 µg/mL (≈ 3.51 µM) | 2 µg/mL (≈ 3.51 µM) | COc1ccc(-c2nn(-c3ccccc3)cc2/C=N/NC(=O)c2cccc(-n3cc(-c4ccccc4)nn3)c2)cc1OC |  |  |  |  |  |  | 
4 | 8 µg/mL (≈ 15.7 µM) | 8 µg/mL (≈ 15.7 µM) | 8 µg/mL (≈ 15.7 µM) | 8 µg/mL (≈ 15.7 µM) | O=C(N/N=C/c1cn(-c2ccccc2)nc1-c1ccccc1)c1cccc(-n2cc(-c3ccccc3)nn2)c1 |  |  |  |  |  |  | 
5 | 2 µg/mL (≈ 3.69 µM) | 2 µg/mL (≈ 3.69 µM) | 2 µg/mL (≈ 3.69 µM) | 2 µg/mL (≈ 3.69 µM) | O=C(N/N=C/c1cn(-c2ccccc2)nc1-c1ccc(O)cc1O)c1cccc(-n2cc(-c3ccccc3)nn2)c1 |  |  |  |  |  |  | 
6 | 2 µg/mL (≈ 3.71 µM) | 2 µg/mL (≈ 3.71 µM) | 2 µg/mL (≈ 3.71 µM) | 2 µg/mL (≈ 3.71 µM) | COc1ccc(-c2nn(-c3ccccc3)cc2/C=N/NC(=O)c2cccc(-n3cc(-c4ccccc4)nn3)c2)cc1 |  |  |  |  |  |  | 
7 | 2 µg/mL (≈ 3.81 µM) | 2 µg/mL (≈ 3.81 µM) | 2 µg/mL (≈ 3.81 µM) | 2 µg/mL (≈ 3.81 µM) | O=C(N/N=C/c1cn(-c2ccccc2)nc1-c1cccc(O)c1)c1cccc(-n2cc(-c3ccccc3)nn2)c1 |  |  |  |  |  |  | 

More lines, now with the values behind:

Row | SMILES | MIC [16] | MIC [17] | MIC [18] | MIC [19] | MIC [1] | MIC [2] | MIC [3] | MIC [4] | MIC [5] | MIC [6] | other results
8 | COc1ccc(-n2cc(COc3ccc(-c4nc5cc(C6=NCCN6)ccc5[nH]4)cc3)nn2)cc1 |  |  |  |  | 8 µg/mL (≈ 17.2 µM) | 8 µg/mL (≈ 17.2 µM) | 8 µg/mL (≈ 17.2 µM) | 8 µg/mL (≈ 17.2 µM) | 8 µg/mL (≈ 17.2 µM) | 8 µg/mL (≈ 17.2 µM) | 
9 | Cc1cc(OCc2cn(Cc3ccccc3)nn2)cc2oc(=O)ccc12 |  |  |  |  |  |  |  |  |  |  | MIC [7]: 2 µg/mL (≈ 5.76 µM); MIC [8]: 2 µg/mL (≈ 5.76 µM); MIC [9]: 2 µg/mL (≈ 5.76 µM); MIC [10]: 2 µg/mL (≈ 5.76 µM); MIC [11]: 2 µg/mL (≈ 5.76 µM); MIC [12]: 2 µg/mL (≈ 5.76 µM); MIC [13]: 2 µg/mL (≈ 5.76 µM); MIC [14]: 2 µg/mL (≈ 5.76 µM); MIC [15]: 2 µg/mL (≈ 5.76 µM)
10 | Cc1cc(OCc2cn(Cc3ccc([N+](=O)[O-])cc3)nn2)cc2oc(=O)ccc12 |  |  |  |  |  |  |  |  |  |  | MIC [7]: 2 µg/mL (≈ 5.1 µM); MIC [8]: 2 µg/mL (≈ 5.1 µM); MIC [9]: 2 µg/mL (≈ 5.1 µM); MIC [10]: 2 µg/mL (≈ 5.1 µM); MIC [11]: 2 µg/mL (≈ 5.1 µM); MIC [12]: 2 µg/mL (≈ 5.1 µM); MIC [13]: 2 µg/mL (≈ 5.1 µM); MIC [14]: 2 µg/mL (≈ 5.1 µM); MIC [15]: 2 µg/mL (≈ 5.1 µM)
11 | CC(C)NC(=N)c1ccc2[nH]c(-c3ccc(OCc4cn(Cc5ccccc5)nn4)cc3)nc2c1 |  |  |  |  | 8 µg/mL (≈ 17.2 µM) | 8 µg/mL (≈ 17.2 µM) | 8 µg/mL (≈ 17.2 µM) | 8 µg/mL (≈ 17.2 µM) | 8 µg/mL (≈ 17.2 µM) | 8 µg/mL (≈ 17.2 µM) | 
12 | CC(C)NC(=N)c1ccc2[nH]c(-c3ccc(OCc4cn(-c5ccc(Cl)cc5)nn4)cc3)nc2c1 |  |  |  |  | 8 µg/mL (≈ 16.5 µM) | 8 µg/mL (≈ 16.5 µM) | 8 µg/mL (≈ 16.5 µM) | 8 µg/mL (≈ 16.5 µM) | 8 µg/mL (≈ 16.5 µM) | 8 µg/mL (≈ 16.5 µM) | 
13 | COc1ccc(-n2cc(COc3ccc(-c4nc5cc(C(=N)N)ccc5[nH]4)cc3)nn2)cc1 |  |  |  |  | 16 µg/mL (≈ 36.4 µM) | 16 µg/mL (≈ 36.4 µM) | 16 µg/mL (≈ 36.4 µM) | 16 µg/mL (≈ 36.4 µM) | 16 µg/mL (≈ 36.4 µM) | 16 µg/mL (≈ 36.4 µM) | 
14 | N=C(N)c1ccc2[nH]c(-c3ccc(OCc4cn(-c5ccc(Cl)cc5)nn4)cc3)nc2c1 |  |  |  |  | 16 µg/mL (≈ 36 µM) | 16 µg/mL (≈ 36 µM) | 16 µg/mL (≈ 36 µM) | 16 µg/mL (≈ 36 µM) | 16 µg/mL (≈ 36 µM) | 16 µg/mL (≈ 36 µM) | 
15 | c1ccc(Cn2cc(COc3ccc(-c4nc5cc(C6=NCCN6)ccc5[nH]4)cc3)nn2)cc1 |  |  |  |  | 8 µg/mL (≈ 17.8 µM) | 8 µg/mL (≈ 17.8 µM) | 8 µg/mL (≈ 17.8 µM) | 8 µg/mL (≈ 17.8 µM) | 8 µg/mL (≈ 17.8 µM) | 8 µg/mL (≈ 17.8 µM) | 
16 | Cc1cc(OCc2cn(Cc3cccc(Cl)c3)nn2)cc2oc(=O)ccc12 |  |  |  |  |  |  |  |  |  |  | MIC [7]: 2 µg/mL (≈ 5.24 µM); MIC [8]: 2 µg/mL (≈ 5.24 µM); MIC [9]: 2 µg/mL (≈ 5.24 µM); MIC [10]: 2 µg/mL (≈ 5.24 µM); MIC [11]: 2 µg/mL (≈ 5.24 µM); MIC [12]: 2 µg/mL (≈ 5.24 µM); MIC [13]: 2 µg/mL (≈ 5.24 µM); MIC [14]: 2 µg/mL (≈ 5.24 µM); MIC [15]: 2 µg/mL (≈ 5.24 µM)
17 | O=c1cc(OCc2cn(Cc3ccc([N+](=O)[O-])cc3)nn2)c2ccccc2o1 |  |  |  |  |  |  |  |  |  |  | MIC [7]: 2 µg/mL (≈ 5.29 µM); MIC [8]: 2 µg/mL (≈ 5.29 µM); MIC [9]: 2 µg/mL (≈ 5.29 µM); MIC [10]: 2 µg/mL (≈ 5.29 µM); MIC [11]: 2 µg/mL (≈ 5.29 µM); MIC [12]: 2 µg/mL (≈ 5.29 µM); MIC [13]: 2 µg/mL (≈ 5.29 µM); MIC [14]: 2 µg/mL (≈ 5.29 µM); MIC [15]: 2 µg/mL (≈ 5.29 µM)
18 | N=C(N)c1ccc2[nH]c(-c3ccc(OCc4cn(Cc5ccccc5)nn4)cc3)nc2c1 |  |  |  |  | 16 µg/mL (≈ 37.8 µM) | 16 µg/mL (≈ 37.8 µM) | 16 µg/mL (≈ 37.8 µM) | 16 µg/mL (≈ 37.8 µM) | 16 µg/mL (≈ 37.8 µM) | 16 µg/mL (≈ 37.8 µM) | 
19 | Cc1cc(OCc2cn(Cc3ccc(Br)cc3)nn2)cc2oc(=O)ccc12 |  |  |  |  |  |  |  |  |  |  | MIC [7]: 2 µg/mL (≈ 4.69 µM); MIC [8]: 2 µg/mL (≈ 4.69 µM); MIC [9]: 2 µg/mL (≈ 4.69 µM); MIC [10]: 2 µg/mL (≈ 4.69 µM); MIC [11]: 2 µg/mL (≈ 4.69 µM); MIC [12]: 2 µg/mL (≈ 4.69 µM); MIC [13]: 2 µg/mL (≈ 4.69 µM); MIC [14]: 2 µg/mL (≈ 4.69 µM); MIC [15]: 2 µg/mL (≈ 4.69 µM)
